One may read the IC50 as the midpoint of a concentration-inhibition curve. In general, EC50 refers to the concentration that produces a half-maximal response.

The values below come from paper PMC5697638, “Identification of a Potent Phosphoinositide 3‐Kinase Pan Inhibitor Displaying a Strategic Carboxylic Acid Group and Development of Its Prodrugs” (Chemmedchem, 2017).

Assay [1] deals with hPI3K‐C2β (PIK3C2B) (Homo sapiens, UniProt O00750). The experiment in a line: lipid kinase assay (ADP-Glo), PI3K-C2β. Format: biochemical. As to conditions: Table 2; 100 μM ATP; read-out: IC50 PI3Kc2β. Here is the method:
In vitro selection, lipid kinase assay: To determine the inhibitory activity of the new molecular entities on PI3K enzyme, a lipid kinase assay was performed: recombinant proteins (30 ng), human PI3Kα (PIK3CA/PIK3R1, #1161‐1165‐1 ProQinase–Germany), hPI3Kβ (PIK3CB wt/PIK3R1, #1168‐1165‐1 ProQinase, Germany), hPI3Kγ (PIK3CG, #1163‐0000‐1 ProQinase, Germany), hPI3Kδ (PIK3CD/PIK3R1, #1162–1165‐1 ProQinase, Germany), hPI3K‐C2α (PIK3C2A, #14‐906 Merck Millipore_Merck KGaA, Germany), hPI3K‐C2β (PIK3C2B, #14‐907 Merck Millipore_Merck KGaA, Germany), hPI3K‐c2γ (PIK3C2G, #1207‐0000‐1 ProQinase, Germany), and hVps34 (PIK3C3, #1160‐0000‐1 ProQinase, Germany), were incubated in kinase buffer {12.5 μL; 20 mM Tris‐HCl pH 7.5, 10 mM MgCl2, 10 μM ATP, 0.05 mg mL^−1 BSA, 0.5 mM EDTA, 5 mM HEPES pH 7.5, for PI3Kα,PI3Kβ, PI3Kγ, PI3Kδ, PI3KC‐2α, and PI3KC‐2γ; 15 mM MnCl2, 5 mM EGTA, 100 μM ATP, 50 mM HEPES pH 7.5, 100 mM NaCl, and 0.03 % CHAPS for PI3K‐C2β and VPS34 {BSA=bovine serum albumin; EDTA=ethylenediaminetetraacetic acid; HEPES=4‐(2‐hydroxyethyl)‐1‐piperazineethanesulfonic acid; EGTA=ethylene glycol‐bis(2‐aminoethylether)‐N,N,N′,N′‐tetraacetic acid; CHAPS=3‐[(3‐cholamidopropyl)dimethylammonio]‐1‐propanesulfonate}. In the reaction, the ATP concentration used for different PI3Ks was defined on the basis of the Michaelis–Menten kinetics of each enzyme, provided by the supplier. […]

The test system of assay [2] is PC3 cells. As to the kind of experiment: analysis of apoptosis, Annexin V staining. As to conditions: 10 μM, 48 h. Type of assay: cell-based. Here is the method:
Analysis of apoptosis: For Annexin V staining of apoptotic cells, PC3 cells were seeded at 4×10^5 cells per 6 cm dish in triplicate. Cells were incubated 48 h in the presence or absence of 10 μM 64 and were then detached with 0.1 % trypsin–EDTA, resuspended in Annexin buffer (10 mM HEPES, pH 7.4, 140 mM NaCl, 2.5 mM CaCl2), and stained for Annexin V (FITC Annexin V #640906, BioLegend, USA). Samples were analyzed by using a FACS‐Calibur flow cytometer (Becton Dickinson Immunocytometry Systems, San Jose, USA).

Assay [3] deals with PC3 cells. As to the kind of experiment: PC3 cell proliferation (MTT). More on the design: key to Cell proliferation: active: Active: able to reduce proliferation to an extent greater than 50 %; inactive: able to reduce proliferation to an extent less than 50 %. Type of assay: cell-based. On the procedure:
The biological activity of each prodrug was tested by analyzing their ability to decrease PC3 proliferation as a rapid test to evaluate the PI3Ks inhibitory activity after hydrolysis in a cell‐based assay. […] The choice of using such a cut‐off was due to the intent to identify rapidly which prodrug could be hydrolyzed in the assay to release the active compound. As expected, a good correlation between rate of hydrolysis and cellular activity was observed, and esters 64–68 and 70–73 were determined to be good candidates for topical use. We decided to focus our attention on ester 64, as its half‐life was a good compromise for a prodrug. The EC50 value of this ester was then evaluated on PC3 cells, and a value of (2.3±0.8) μM was obtained.
Cell proliferation: PC3 cell proliferation was measured with a 3‐(4,5‐dimethyl thiazol‐2‐yl)‐2,5‐diphenyltetrazolium bromide (MTT)‐based colorimetric assay (#11 465 007 001 Roche Diagnostic GmbH, Germany). PC3 cells were seeded in a 96‐well plate at a concentration of 10^4 cells mL^−1. PC3 cells were treated for 72 h with increasing concentrations of 64, and MTT was added. After ON solubilization of the MTT metabolite, formazan, the absorbance (λ=550–600 nm absorbance, with a reference wavelength of 650 nm) of each well was read in a multi‐well reader (Glomax multi detection system, Promega, model number 9301‐010). The percentage of proliferating cells was calculated by relating each absolute value to the control intended as PC3 cells treated with DMSO alone. An IC50 value was then derived by plotting all data on a dose–response curve (Graph Pad software) by using nonlinear regression fit (equation [log agonist] versus response).

hPI3K‐C2β (PIK3C2B), sequence (O00750 whole entry): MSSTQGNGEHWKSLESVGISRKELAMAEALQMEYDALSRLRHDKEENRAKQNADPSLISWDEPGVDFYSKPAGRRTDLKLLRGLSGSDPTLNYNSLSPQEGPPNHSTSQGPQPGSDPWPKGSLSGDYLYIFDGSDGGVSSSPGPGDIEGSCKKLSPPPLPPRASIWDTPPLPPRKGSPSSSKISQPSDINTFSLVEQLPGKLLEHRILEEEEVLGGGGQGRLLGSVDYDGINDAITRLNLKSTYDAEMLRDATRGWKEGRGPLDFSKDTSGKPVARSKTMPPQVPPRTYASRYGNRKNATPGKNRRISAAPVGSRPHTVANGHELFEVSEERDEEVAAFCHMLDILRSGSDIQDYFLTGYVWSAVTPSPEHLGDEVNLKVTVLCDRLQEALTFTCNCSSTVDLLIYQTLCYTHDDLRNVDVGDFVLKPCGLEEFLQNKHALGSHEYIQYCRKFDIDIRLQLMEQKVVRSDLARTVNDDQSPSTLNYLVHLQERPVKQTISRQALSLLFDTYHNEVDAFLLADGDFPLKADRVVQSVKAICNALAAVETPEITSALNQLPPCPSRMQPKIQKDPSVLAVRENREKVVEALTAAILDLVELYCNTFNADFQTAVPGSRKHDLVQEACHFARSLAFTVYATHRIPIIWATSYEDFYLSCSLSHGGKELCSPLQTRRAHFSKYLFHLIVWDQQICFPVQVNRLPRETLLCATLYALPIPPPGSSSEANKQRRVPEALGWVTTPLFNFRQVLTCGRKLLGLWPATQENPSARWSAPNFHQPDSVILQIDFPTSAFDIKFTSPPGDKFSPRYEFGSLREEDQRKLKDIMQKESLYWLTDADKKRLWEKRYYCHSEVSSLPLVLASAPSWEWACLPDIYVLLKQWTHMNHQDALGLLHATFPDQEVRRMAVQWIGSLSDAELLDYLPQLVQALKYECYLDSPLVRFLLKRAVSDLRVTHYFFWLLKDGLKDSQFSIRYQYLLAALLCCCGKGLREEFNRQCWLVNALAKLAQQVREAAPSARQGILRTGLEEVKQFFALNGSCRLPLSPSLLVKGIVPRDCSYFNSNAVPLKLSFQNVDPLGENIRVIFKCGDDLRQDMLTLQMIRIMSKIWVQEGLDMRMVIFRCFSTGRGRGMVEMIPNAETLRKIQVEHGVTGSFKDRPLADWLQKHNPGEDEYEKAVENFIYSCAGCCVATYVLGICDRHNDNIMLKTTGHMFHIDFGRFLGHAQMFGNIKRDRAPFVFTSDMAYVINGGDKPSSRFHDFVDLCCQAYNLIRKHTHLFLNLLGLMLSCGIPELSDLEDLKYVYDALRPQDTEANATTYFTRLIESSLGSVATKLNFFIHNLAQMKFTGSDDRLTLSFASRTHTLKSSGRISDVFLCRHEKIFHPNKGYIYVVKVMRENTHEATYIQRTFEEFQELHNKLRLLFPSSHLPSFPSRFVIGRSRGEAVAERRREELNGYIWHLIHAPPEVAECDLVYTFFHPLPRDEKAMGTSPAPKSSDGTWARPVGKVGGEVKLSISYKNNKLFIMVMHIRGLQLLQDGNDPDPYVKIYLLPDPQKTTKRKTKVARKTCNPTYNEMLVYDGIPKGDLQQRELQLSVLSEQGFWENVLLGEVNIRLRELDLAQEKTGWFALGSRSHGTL

For the compound `O=C(O)c1cccc(Cn2cc(-c3cccc4c(=O)cc(N5CCOCC5)[nH]c34)nn2)c1` [Compound 37, 3‐{[4‐(2‐Morpholino‐4‐oxo‐1,4‐dihydroquinolin‐8‐yl)‐1H‐1,2,3‐triazol‐1‐yl]methyl}benzoic acid], the IC50 in assay [1] was more than 20000 nM.

For `COC(=O)c1cccc(Cn2cc(-c3cccc4c(=O)cc(N5CCOCC5)[nH]c34)nn2)c1` [Compound 64, Methyl 3‐{[4‐(2‐morpholino‐4‐oxo‐1,4‐dihydroquinolin‐8‐yl)‐1H‐1,2,3‐triazol‐1‐yl]methyl}benzoate], the “effect on cell apoptosis” value in assay [2] is “did not show any effect in inducing cell apoptosis”. In addition, the “effect on proliferation of PC3 cells” value in assay [3] (72 h of treatment) is recorded as “dose‐dependently decreased proliferation”. Besides, it took 2300 ± 800 nM to reach a half-maximal effect in assay [3] (Homo sapiens, PC-3, PC3 proliferation, MTT, 72 h) (EC50). Also, the Cell proliferation result in assay [3] (PC3 cells, 10 μM of each prodrug) was “active”.
